Patent publication US20090247495A1, “CU[…] AND USES THEREOF” (priority 2007, published 2009)
≈ marks a conversion by molar mass, not a printed value.

Experiments:
MAPK signaling pathway = assay: Western blot of MAPK / cell cycle signaling proteins in HL60 cells; assay type: cell-based, human
Method: (§1) Control cells, as well as cells treated with cucurbitacin B or cucurbitacin D, were harvested and collected by centrifugation. Whole cell extracts were then prepared by lysing the cells using 4% sodium dodecyl sulfate (SDS) gel sample buffer. Cell extracts were boiled for 10 min and chilled on ice, subjected to 12% SDS-polyacrylamide gel electrophoresis, and transferred to a PVDF membrane. Each membrane was cut into to two pieces with one piece incubated at 4° C. overnight with antibodies against cell cycle signaling proteins, such as ERK, phosphorlated-ERK, p38, phosphorlated-p38, Cyclin E, Retinoblastoma, phosphalated-Retinoblastoma and c-myc, and apoptotic protein (PARP). β-actin was used as a control for protein loading. All antibodies were obtained from Cell signaling Technologies (USA). Then membranes were incubated at 37° C. for 1 h with secondary antibody conjugated with peroxidase, and the signal was detected using chemiluminescence detection reagent. The relative protein level was calculated as the ratio of the optical density of the protein of interest to that of β-actin.

PARP = assay: Western blot of PARP cleavage in HL60 cells; assay type: cell-based, human
Method: as §1

hsp27 = assay: Western blot of hsp27 in HepG2, HT29 and MCF-7 cells; assay type: cell-based, human
Method: (§2) The human cancer cells line were serum starved for 18 hours prior to CuB/CuD treatment. Cells were incubated in a 6-well plate filled with 5 ml growth medium (RPMI with 0.2% FBS and 1% PS) at the cell density of 1×10^5 cells/ml, in the presence or absence of two different dosages of CuB/CuD for various time intervals. The drug treatment was terminated by centrifugation at 1,500 rpm for 5 minutes and the cells were rinsed twice with phosphate-buffered saline and lysed at 4° C. in a lysis buffer containing 50 mM Tris-HCl, pH7.5, 100 mM NaCl, 5 mM EDTA, 40 mM NaP2O7, 1% Triton X-100, 1 mM dithiothreitol, 200 μM Na3VO4, 100 uM phenylmethysufonyl fluoride, 2 μg/ml leupeptin, 4 μg/ml aprotinin and 0.7 μg/ml pepstatin. The insoluble protein lysate were removed by centrifugation for 10 minutes at 13,000 rpm. Fifteen micrograms of protein lysate was resolved using 10% SDS-polyacryamide gel electrophoresis (PAGE) and then subjected to western blot anaylsis. Western blots were performed with anti-Stat3, anti-Erk1/2 and anti-hsp27 antibodies specific for phosphor- and total Stat3, Erk and hsp27 proteins. The protein bands were then visualized with the Enhanced Chemiluminescence Plus (ECL Plus) detection system (Amersham). • 6.2.8.1 Inhibition Effect Cucurbitacin B/Cucurbitacin D on Stat3 Activation in HepG2 and HT29 Cells
(§3) Cells were incubated either with CuB or CuD (25 ug/ml or the dosage of IC50) for various time intervals (5, 10 or 30 mins, 1 or 4 hours). The Stat3 activation was detected by western blot.

[1] = system: colon cancer cell line (HT29); assay: MTT cell cytotoxicity assay, HT29; assay type: cell-based, human; settings: 48 hours
Method: (§4) Three human cancer cell lines (HepG2(liver), HT29(colon) and MCF-7(breast)) were purchased from American Type Culture Collection (ATCC, Manassas, Va., USA). The cells were cultured in RPMI 1640 medium supplemented with 5% (v/v) fetal bovine serum (FBS) and 100 units/ml penicillin and streptomycin (Invitrogen Life Technologies) in a humidified 5% CO2 atmosphere at 37° C.
The cytotoxic effect of CuB and CuD on these three cancer cell lines were determined using MTT (3-[4,5-dimethylthiazol-2-yl]-2,5-diphenyl tetrazolium bromide) labeled cell cytotoxicity assay. A total of 1×10^4 cells were seeded into a 96-well plate for 24 hours prior to cucurbitacin B (CuB) or cucurbitacin D (CuD) treatment. They were then treated with different dosages of CuB/CuD for 48 hours. After the treatment, 20 μl of MTT (5 mg/ml) was added to each well and incubated for 4 hrs. Then the medium was discarded and 100 μl of dimethyl sulfoxide was added. The absorbance at 570 nm was then measured by using FLUOstar OPTIMA equipment (BMG, LABTECH GmbH, Germany). The percentage of inhibition against different dosages of CuB/CuD were plotted using the Prism software and the 50% inhibition concentration (IC50) were obtained.

Erk1/2 = assay: Western blot of Erk1/2 in HepG2, HT29 and MCF-7 cells; assay type: cell-based, human
Method: as §2, §3

Stat3 = assay: Western blot of Stat3 activation in HepG2, HT29 and MCF-7 cells; assay type: cell-based, human
[2] = system: Human cancer cell lines from the 59-NCI Cancer Cell Line Panel; assay type: cell-based
[3] = system: Human cancer cell lines from the 59-NCI Cancer Cell Line Panel; assay: Apoptosis (Annexin V-FITC / PI) by flow cytometry, 18 selected NCI panel cell lines; assay type: cell-based; settings: 48 hours; GI50, ½ GI50 and ¼ GI50
Method: Apoptosis is the important mechanism for cell death in normal cells. In cancer cells, this mechanism fails and cells proliferate without control. Human cancer cell lines from the 59-NCI Cancer Cell Line Panel including leukemia, melanoma and cancers of breast, brain, colon, lung, ovary, prostate and kidney were purchased from the National Institute of Cancer. […] They were treated with cucurbitacin B and cucurbitacin D at three different concentrations to elucidate their ability to induce any changes in cell cycle.
Cancer cell lines were maintained in RPMI 1640 supplemented with 5% Fetal Bovine Serum, 2 mM L-glutamine and 1% Penicillin/Streptomycin at 37° C. with 5% CO2. Cells were inoculated into tissue culture flask at cell concentrations from 50000 to 400,000 cells/ml according to the NCI guideline. The cells were incubated at 37° C. with 5% CO2 for 24 hours. Cucurbitacin B and cucurbitacin D were added to the cells of final concentrations ranging from 6 to 350 nM (GI50, ½ GI50 and ¼ GI50 of particular cell line) for 48 hours at 37° C. with 5% CO2. Cells (3×10^5) were then harvested and stained with 5 μl Annexin V-FITC and 10 μl propidium iodine (Becton Dickinson, CA, USA) for 15 minutes at room temperature. Ten thousands events were collected by the FACScaliber and the percentage of different cell populations were analyzed by the CellQuest™ software (Becton Dickinson).

melanoma = assay: SRB growth inhibition, melanoma lines of the NCI panel; assay type: cell-based, human; settings: 48 hours
Description: Human cancer cell lines from the 59-NCI Cancer Cell Line Panel including leukemia, melanoma and cancers of breast, brain, colon, lung, ovary, prostate and kidney, were purchased from the National Institute of Cancer (USA). The growth inhibition (GI50) of these cell lines treated with cucurbitacin B and cucurbitacin D in various concentrations was investigated.
59 human cancer cell lines were maintained in RPMI 1640 (Invitrogen Life Technologies, CA, USA) supplemented with 5% Fetal Bovine Serum, 2 mM L-glutamine and 1% Penicillin/Streptomycin (Invitrogen Life Technologies) at 37° C. with 5% CO2. All chemicals were purchased from Sigma (St. Louis, Mo., USA) unless specified otherwise.
Sulforhodamine B (SRB) assay was applied to determine the cytostatic effect of cucurbitacin B and cucurbitacin D. SRB is a dye that binds to cellular proteins and will be dissolved in base. The biomass of total protein can be measured at 520 nm using a plate reader.
Cells were inoculated into 96-well microtiter plates including “Time zero” (Tz) plates in 100 μl at cell concentrations from 5000 to 40,000 cells per well according to NCI guideline. The cells were incubated at 37° C. with 5% CO2 for 24 hours. […] Bound SRB was solubilized with 100-200 ul per well of 10 mM trizma base and absorbance was measured at a wavelength of 520 nm. The percentage of growth inhibition was calculated as follows: […]

[4] = system: Human liver cancer cell lines HepG2; assay: MTT cytotoxicity assay, matrix combination of CuB and Sb on liver cancer cells; assay type: cell-based; settings: HepG2, 2 days, CuB 0 μM
Method: as §4, with “Human liver” for “Three human”, “HepG2 was” for “(HepG2(liver), HT29(colon) and MCF-7(breast)) were”
A total of 1×10^4 cells were seeded into a 96-well plate for 24 hours prior to drug treatment. They were then treated with different dosages (a multiple of 20-fold of IC50 values) of CuB or Sb for 48 hours. After the treatment, 20 μl of MTT (5 mg/ml) was added to each well and incubated for 4 hrs. Then the medium was discarded and 100 μl of dimethyl sulfoxide was added. The absorbance at 570 nm was then measured by using FLUOstar OPTIMA equipment (BMG, LABTECH GmbH, Germany). The percentage of inhibition against different dosages of CuB or Sb were plotted using the Prism software and the 50% inhibition concentration (IC50) were obtained.
The cells were then treated for 2 days and the % inhibition of growth is determined.
The excess over Bliss additivism may be calculated using the following formula and shown in Table 4: • Bliss Additivism: Combined response=CuB+Sb−(CuB)(Sb) where each effect is expressed as fractional inhibition between 0 and 1 • Excess over additivism=observed response−combined response

Q: `CC(C)(O)/C=C/C(=O)[C@](C)(O)[C@H]1[C@H](O)C[C@@]2(C)[C@@H]3CC=C4[C@@H](C[C@H](O)C(=O)C4(C)C)[C@]3(C)C(=O)C[C@]12C` [cucurbitacin D] was tested. Which “regulation of ERK, cyclin E, retinoblastoma phosphorylation and c-myc” value (MAPK signaling pathway) did it give?
A: The value was “ERK activation, followed by cyclin E down-regulation, inhibition of retinoblastoma's phosphorylation, and ultimately down-regulation of c-myc”.

Q: And the “apoptosis marker PARP” value (PARP)?
A: The value was “cleavage of PARP”.

Q: And the Hsp27 activation (hsp27; HT29, 10 minutes)?
A: The Hsp27 activation was “significant up-regulation”.

Q: What about the Hsp27 activation (hsp27; HepG2, 30 minutes) of the same compound?
A: Its Hsp27 activation is “significant up-regulation”.

Q: And the Hsp27 activation (hsp27; MCF-7, 4 hours)?
A: The Hsp27 activation was “significant up-regulation”.

Q: And the IC50 [1]?
A: The IC50 was 0.27 µg/mL (≈ 0.523 µM).

Q: And the “expression of Erk1/2” value (Erk1/2; HT29, 5 minutes of treatment)?
A: The value was “up-regulated the expression of Erk1/2 significantly”.

Q: What about the “expression of Erk1/2” value (Erk1/2; HepG2, 30 minutes of treatment) of the same compound?
A: Its value is “up-regulated the expression of Erk1/2 significantly”.

Q: And the Erk activation (Erk1/2; MCF-7 cells, 5 minutes)?
A: Its Erk activation is “significant Erk activation”.

Q: What about the Stat3 activation (Stat3; HepG2 cells and HT29 cells, 25 ug/ml, 30 minutes) of the same compound?
A: The Stat3 activation was “inhibited significantly”.

Q: And the Stat3 activation (Stat3; MCF-7 cells)?
A: Its Stat3 activation is “no significant change”.

Q: And the “cell lines with G2/M arrest” value [2]?
A: Its value is 9 out of 18.

Q: And the cell cycle effect ([2]; SF-295, 48 hours)?
A: The cell cycle effect was “G2/M arrest and endoreduplication”.

Q: And the “cell lines in which apoptosis was induced” value [3]?
A: The value was 11 out of 18.

Q: What about the GI50 (melanoma) of the same compound?
A: Its GI50 is 60 nM.

Q: For `CNC(=O)c1cc(Oc2ccc(NC(=O)Nc3ccc(Cl)c(C(F)(F)F)c3)cc2)ccn1` [sorafenib, reference compound], which “% inhibition” value ([4]; Sb 0.1 μM) is on record?
A: Its value is 4.61%.

Q: And the “Excess over Highest Single Agent Model” value ([4]; Sb 0.1 μM)?
A: The value was 0.

Q: And the “% inhibition” value ([4]; Sb 0.3 μM)?
A: The value was 27.69%.

Q: And the “Excess over Highest Single Agent Model” value ([4]; Sb 0.3 μM)?
A: The value was 0.

Q: What about the “% inhibition” value ([4]; Sb 0.9 μM) of the same compound?
A: Its value is 39.10%.

Q: What about the “Excess over Highest Single Agent Model” value ([4]; Sb 0.9 μM) of the same compound?
A: Its value is 0.

Q: What about the “% inhibition” value ([4]; Sb 2.7 μM) of the same compound?
A: Its value is 35.35%.

Q: And the “Excess over Highest Single Agent Model” value ([4]; Sb 2.7 μM)?
A: The value was 0.

Q: What about the “% inhibition” value ([4]; Sb 8.4 μM) of the same compound?
A: Its value is 82.28%.

Q: And the “Excess over Highest Single Agent Model” value ([4]; Sb 8.4 μM)?
A: The value was 0.
